Measurements: patent US10202371B2, “Oxazolidin-2-one-pyrimidine derivatives and the use thereof as phosphatidylinositol-3-kinase inhibitors” (Novartis AG, priority 2012, dated 2019)

Tests used:
[1] = molecular target: mTOR (TSC1-/- MEFs cells) (Mus musculus (Mouse), UniProt Q9JLN9); experiment: Cellular assay mTOR, phospho-T389 S6K1 SureFire in TSC1-/- MEF cells; type: cell-based; conditions: read-out: mTOR TS6K(T389)_TSC1ko/ IC50
From the text: A cell based assay (384-well format) was developed for determination of compound effects on cellular mTOR activity in MEF (mouse embryo fibrobrasts) cells derived from mice lacking TSC1 (Tuberosclerosis Complex1) a potent suppressor of mTOR activity. Due to lack of TSC1, mTOR is constitutively activated resulting in permanent phoshorylation of Thr 389 of S6 kinase 1 (S6K1) which is one of the downstream targets of mTOR.
Using a SureFire Kit that enables to determine the phosphorylation of Thr389 on the S6K1 an assay was developed, validated and implemented in the Alpha-Screen format that allows the quantitative determination of phospho-T389 of S6K1 in cell lysates. […] These were in agreement with those values obtained with the biochemical mTOR ATP-binding assay enabling a quantitative comparison of potency of mTOR inhibitors.
TSC1−/− MEFs cells (Kwiatkowski, D. J., Zhang, H., Bandura, J. L., Heiberger, K. M., Glogauer, M., el-Hashemite, N., and Onda, H. (2002) Hum. Mol. Genet. 11, 525-534) were cultured in DMEM high glucose medium supplemented with 10% FBS (Invitrogen), 2 mM Glutamine and 1% (w/v) Penicillin/Streptomycin at 37° C., 5% CO2.
The SureFire kit for determination of P70S6kinase phosphorylation was purchased from Perkin Elmer (p70S6K p-T389, #TGR70S50K) and the assay was performed according to the instructions of the supplier and according to the generic method for SureFire assays. Shortly, 5 μL cell lysate per well were transferred to 384-well white proxy-plates (for luminescent readout) and mixed with […] and […] (final volume: 12 μL). After 3 h incubation in the dark at RT luminescence was read with the Envision Reader (Perkin Elmer). Untreated cells were used as control (high control) and cells treated with 3 μM BEZ235 were used as low control. The assay window between the signals obtained for the high and the low controls were defined as 100% and compound effects were expressed as percent inhibition. IC50 values were calculated from the dose response curves by graphical extrapolation.

human mTOR (GST-mTOR) = human mTOR (GST-mTOR) (Homo sapiens (Human), UniProt P42345); experiment: Binding assay mTor (Lanthascreen kinase binding assay); conditions: Tracer-314
From the text: Catalytically active human PI3Kα, PI3Kβ, PI3Kδ, and mTOR were cloned, expressed and purtified as described (Maira S M, Stauffer F, Brueggen J, Furet P, Schnell C, Fritsch C, Brachmann S, Chène P, de Pover A, Schoemaker K, Fabbro D, Gabriel D, Simonen M, Murphy L, Finan P, Sellers W, Garcia-Echeverria C (2008), Mol Cancer Ther. 7:1851-63 and Maira S M, Pecchi S, Brueggen J, Huh K, Schnell C, Fritsch C, Nagel T, Wiesmann M, Brachmann S, Dorsch M, Chène P, Schoemaker K, De Pover A, Menezes D, Fabbro D, Sellers W, Garcia-Echeverria C, Voliva CF (2011), Mol. Cancer Ther. accepted).
TR-FRET assays for protein kinases uses a long-lifetime lanthanide Terbium or Europium chelates as the donor species which overcome interference by compound autofluorescence or light scatter from precipitated compounds, by introducing a delay after excitation by a flashlamp excitation source. Results are often expressed as a ratio of the intensities of the acceptor and donor fluorophores. The ratiometric nature of such a value corrects for differences in assay volumes between wells, as well as corrects for quenching effects due to colored compounds.
Binding Assays are based on the binding and displacement of an Alexa Fluor® 647-labeled, ATP-competitive kinase inhibitors to the kinase of interest. Invitrogen's “Kinase Tracers” have been developed to address a wide range of kinase targets and are based on ATP-competitive kinase inhibitors, making them suitable for detection of any compounds that bind to the ATP site or to an allosteric site altering the conformation of the ATP site. Inhibitors that bind the ATP site include both Type I kinase inhibitors, which bind solely to the ATP site, and Type II inhibitors (e.g., Gleevec®/Imatinib, Sorafenib, BIRB-796), which bind to both the ATP site and a hydrophobic site exposed in the DFG-out (non-active) conformation. […] The sole exception was a substrate-competitive compound, and thus not a true allosteric inhibitor.
In contrast to most fluorescence-based kinase activity assays, LanthaScreen® Eu^3+ Kinase Binding Assays can be read continuously, which facilitates evaluation of compounds with slow binding kinetics. Also, unlike most activity assays, binding assays can be performed using either active or non-activated kinase preparations, which enables characterization of compounds that bind preferentially to non-activated kinases, such as Gleevec®/imatinib and some allosteric inhibitors.
In the Lanthascreen™ kinase binding assay, the donor (Eu^3+-anti-GST antibody) is excited at 340 nm and will transfer its energy to the acceptor (Alexa Fluor® 647-labeled ATP-competitive kinase inhibitor=Tracer-314). The emission from the Tracer-314 (Alexa Fluor® 647 inhibitor) can be monitored with a filter centered at 665 nm because it is located between the emission peaks of the donor, which is measured at 615/620 nm. The binding of both, the Tracer-314 and Eu^3+-anti-GST antibody, to the kinase results in a high degree of FRET from the Eu^3+-donor fluorophore to the Alexa-Fluor® 647-acceptor fluorophore on the Tracer-314. Binding of an inhibitor to the kinase competes for binding with the tracer, resulting in a loss of FRET.
50 nL of compound dilutions were dispensed onto white 384-well small volume polystyrene plate as described in section 2.2. Then 5 μL of GST-mTOR and Europium-anti-GST antibody followed by 5 μL of tracer-314 (final assay volume 10 μL) are incubated at RT. The standard reaction buffer for the Lanthascreen™ kinase binding assay contained 50 mM HEPES pH 7.5, 5 mM MgCl2, 1 mM EGTA, 0.01% Pluronic F-127. Plates are read 60 mins later in a Synergy2 reader using an integration time of 0.2 microseconds and a delay of 0.1 microseconds.
To calculate the emission ratio, the signal emitted at 665 nm from the acceptor (Alexa Fluor® 647-labeled Tracer-314) is divided by the signal emitted at 620 nm from the donor (Eu^3+ anti-GST antibody) […]

Structure (SMILES) | IC50 [1] | IC50 (human mTOR (GST-mTOR))
COCCOc1ccc([C@@H]2OC(=O)N(c3cc(-c4cnc(N)nc4C(F)(F)F)nc(N4CCOCC4)n3)[C@H]2CO)cc1 [Example 12] | 0.274 µM | 0.75 µM
CC[C@H]1[C@H](c2ccc(OC)cc2)OC(=O)N1c1cc(-c2cnc(N)nc2C(F)(F)F)nc(N2CCOCC2)n1 (relative stereo) [Example 2, (4S*,5S*)-3-(2′-amino-2-morpholino-4′-(trifluoromethyl)-[4,5′-bipyrimidin]-6-yl)-4-ethyl-5-(4-methoxyphenyl)oxazolidin-2-one] |  | 2.8 µM
CC[C@H]1[C@H](c2nccs2)OC(=O)N1c1cc(-c2cnc(N)nc2C(F)(F)F)nc(N2CCOCC2)n1 [Example 7] |  | 2.7 µM
COc1ccc([C@@H]2OC(=O)N(c3cc(-c4cnc(N)nc4C(F)(F)F)nc(N4CCOCC4)n3)[C@H]2CO)cc1 [Example 3, (4S,5S)-3-(2′-Amino-2-morpholino-4′-(trifluoromethyl)-[4,5′-bipyrimidin]-6-yl)-4-(hydroxymethyl)-5-(4-methoxyphenyl)oxazolidin-2-one] | 0.159 µM | 0.85 µM
C[C@H]1[C@H](c2nccs2)OC(=O)N1c1cc(-c2cnc(N)nc2C(F)(F)F)nc(N2CCOCC2)n1 [Example 1, (4S,5R)-3-(2′-Amino-2-morpholin-4-yl-4′-trifluoromethyl-[4,5′]bipyrimidinyl-6-yl)-4-methyl-5-thiazol-2-yl-oxazolidin-2-one] | 0.243 µM | 0.251 µM
Nc1ncc(-c2cc(N3C(=O)O[C@@H](c4ccccc4)[C@@H]3CO)nc(N3CCOCC3)n2)c(C(F)(F)F)n1 [Example 10] | 0.221 µM | 1.01 µM
Nc1ncc(-c2cc(N3C(=O)O[C@@H](c4ccc(OCCCO)cc4)[C@@H]3CO)nc(N3CCOCC3)n2)c(C(F)(F)F)n1 [Example 14] | 0.724 µM | 0.49 µM
C[C@H]1[C@@H](c2nccs2)OC(=O)N1c1cc(-c2cnc(N)nc2C(F)(F)F)nc(N2CCOCC2)n1 [Example 11] | 0.747 µM | 0.87 µM
C[C@H]1[C@H](c2ccccc2)OC(=O)N1c1cc(-c2cnc(N)nc2C(F)(F)F)nc(N2CCOCC2)n1 [Example 5] | 0.371 µM | 2.25 µM
Nc1ncc(-c2cc(N3C(=O)O[C@@H](c4ccc(OCCO)cc4)[C@@H]3CO)nc(N3CCOCC3)n2)c(C(F)(F)F)n1 [Example 13] | 1.07 µM | 0.23 µM
CCC1C(c2cccnc2)OC(=O)N1c1cc(-c2cnc(N)nc2C(F)(F)F)nc(N2CCOCC2)n1 (stereo not shown) [Example 8] |  | 0.96 µM
